Laboratory results as given in the supplement of paper PMC10307832.

Tests used:
Assay in all cases: relative viability (nuclei count vs DMSO), 5 days (fraction); higher = more cells survive
Calu-6 = test system: Calu-6
In short: (§1)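 Lung cancer cell lines in 1536-well plates were dosed by pin tool the day after seeding, either with one drug alone or with a fixed anchor-drug dose plus five library-drug doses (not always all listed) in √10 steps. After 5 days, cells were fixed and their nuclei stained in one step (final 0.05% Triton X-100, 1% formaldehyde, 1 ug/ml Hoechst), then counted on 4× images. Relative viability is the nuclei count in treated wells divided by that in vehicle wells. Values are medians of duplicate plates.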

EMC-BAC-2 = test system: EMC-BAC-2
In short: as §1

IA-LM = test system: IA-LM
In short: as §1

A549 = test system: A549
In short: as §1

EBC-1 = test system: EBC-1
In short: as §1

NCI-H2228 = test system: NCI-H2228
In short: as §1

NCI-H2009 = test system: NCI-H2009
In short: as §1

NCI-H1703 = test system: NCI-H1703
In short: as §1

NCI-H1299 = test system: NCI-H1299
In short: as §1

ABC-1 = test system: ABC-1
In short: as §1

Structure (SMILES): Cc1cn(-c2cc(NC(=O)c3ccc(C)c(Nc4nccc(-c5cccnc5)n4)c3)cc(C(F)(F)F)c2)cn1 [Nilotinib] + Cc1nc(NC(=O)N2CCC[C@H]2C(N)=O)sc1-c1ccnc(C(C)(C)C(F)(F)F)c1 [Alpelisib] (partner 2 µM)
- relative viability (Calu-6; first compound 0.001 µM): 1.11
- relative viability (Calu-6; first compound 0.01 µM): 1.03
- relative viability (Calu-6; first compound 0.03162 µM): 0.989
- relative viability (Calu-6; first compound 0.1 µM): 0.958
- relative viability (EMC-BAC-2; first compound 0.001 µM): 0.728
- relative viability (EMC-BAC-2; first compound 0.003162 µM): 0.893
- relative viability (EMC-BAC-2; first compound 0.01 µM): 0.883
- relative viability (EMC-BAC-2; first compound 0.03162 µM): 0.668
- relative viability (EMC-BAC-2; first compound 0.1 µM): 0.787
- relative viability (IA-LM; first compound 0.001 µM): 0.653
- relative viability (IA-LM; first compound 0.003162 µM): 0.679
- relative viability (IA-LM; first compound 0.01 µM): 0.781
- relative viability (IA-LM; first compound 0.03162 µM): 0.606
- relative viability (IA-LM; first compound 0.1 µM): 0.963
- relative viability (A549; first compound 0.001 µM): 0.721
- relative viability (A549; first compound 0.003162 µM): 0.817
- relative viability (A549; first compound 0.01 µM): 1.02
- relative viability (A549; first compound 0.03162 µM): 0.543
- relative viability (A549; first compound 0.1 µM): 0.649
- relative viability (EBC-1; first compound 0.001 µM): 0.787
- relative viability (EBC-1; first compound 0.003162 µM): 0.796
- relative viability (EBC-1; first compound 0.01 µM): 0.811
- relative viability (EBC-1; first compound 0.03162 µM): 0.566
- relative viability (EBC-1; first compound 0.1 µM): 0.689
- relative viability (NCI-H2228; first compound 0.001 µM): 0.602
- relative viability (NCI-H2228; first compound 0.003162 µM): 0.763
- relative viability (NCI-H2228; first compound 0.01 µM): 0.814
- relative viability (NCI-H2228; first compound 0.03162 µM): 0.813
- relative viability (NCI-H2228; first compound 0.1 µM): 0.455
- relative viability (NCI-H2009; first compound 0.001 µM): 1.13
- relative viability (NCI-H2009; first compound 0.003162 µM): 1.2
- relative viability (NCI-H2009; first compound 0.01 µM): 1.25
- relative viability (NCI-H2009; first compound 0.03162 µM): 1.14
- relative viability (NCI-H2009; first compound 0.1 µM): 1.14
- relative viability (NCI-H1703; first compound 0.001 µM): 0.338
- relative viability (NCI-H1703; first compound 0.003162 µM): 0.249
- relative viability (NCI-H1703; first compound 0.01 µM): 0.171
- relative viability (NCI-H1703; first compound 0.03162 µM): 0.166
- relative viability (NCI-H1703; first compound 0.1 µM): 0.175

Structure (SMILES): CN1CCN(CCOc2cc(OC3CCOCC3)c3c(Nc4c(Cl)ccc5c4OCO5)ncnc3c2)CC1 [Saracatinib] + CC1(C)CCC(c2ccc(Cl)cc2)=C(CN2CCN(c3ccc(C(=O)NS(=O)(=O)c4ccc(N[C@H](CCN5CCOCC5)CSc5ccccc5)c(S(=O)(=O)C(F)(F)F)c4)cc3)CC2)C1 [Navitoclax] (partner 0.5 µM)
- relative viability (Calu-6; first compound 0.02 µM): 0.914
- relative viability (Calu-6; first compound 0.2 µM): 0.746
- relative viability (Calu-6; first compound 0.6325 µM): 0.731
- relative viability (Calu-6; first compound 2 µM): 0.562
- relative viability (EMC-BAC-2; first compound 0.02 µM): 1.15
- relative viability (EMC-BAC-2; first compound 0.2 µM): 1.16
- relative viability (EMC-BAC-2; first compound 0.6325 µM): 1.15
- relative viability (EMC-BAC-2; first compound 2 µM): 0.993
- relative viability (IA-LM; first compound 0.02 µM): 0.865
- relative viability (IA-LM; first compound 0.6325 µM): 1.45
- relative viability (IA-LM; first compound 2 µM): 1
- relative viability (A549; first compound 0.02 µM): 1.42
- relative viability (A549; first compound 0.2 µM): 0.903
- relative viability (A549; first compound 0.6325 µM): 1.39
- relative viability (A549; first compound 2 µM): 1.38
- relative viability (NCI-H1299; first compound 0.02 µM): 1.01
- relative viability (NCI-H1299; first compound 0.2 µM): 1.06
- relative viability (NCI-H1299; first compound 0.6325 µM): 1.04
- relative viability (NCI-H1299; first compound 2 µM): 1.04
- relative viability (EBC-1; first compound 0.02 µM): 0.542
- relative viability (EBC-1; first compound 0.2 µM): 0.408
- relative viability (EBC-1; first compound 0.6325 µM): 0.393
- relative viability (EBC-1; first compound 2 µM): 0.43
- relative viability (NCI-H2228; first compound 0.02 µM): 1.29
- relative viability (NCI-H2228; first compound 0.2 µM): 0.831
- relative viability (NCI-H2228; first compound 0.6325 µM): 1.24
- relative viability (NCI-H2228; first compound 2 µM): 0.459
- relative viability (NCI-H2009; first compound 0.02 µM): 1.15
- relative viability (NCI-H2009; first compound 0.2 µM): 1.07
- relative viability (NCI-H2009; first compound 0.6325 µM): 1.15
- relative viability (NCI-H2009; first compound 2 µM): 1.16
- relative viability (NCI-H1703; first compound 0.02 µM): 1.09
- relative viability (NCI-H1703; first compound 0.2 µM): 0.904
- relative viability (NCI-H1703; first compound 0.6325 µM): 0.43
- relative viability (NCI-H1703; first compound 2 µM): 0.269

Structure (SMILES): CN1CCN(CCOc2cc(OC3CCOCC3)c3c(Nc4c(Cl)ccc5c4OCO5)ncnc3c2)CC1 [Saracatinib] + CC(C)C[C@H](NC(=O)[C@H](Cc1ccccc1)NC(=O)c1cnccn1)B(O)O [Bortezomib] (partner 0.002 µM)
- relative viability (Calu-6; first compound 0.02 µM): 0.939
- relative viability (Calu-6; first compound 0.2 µM): 0.796
- relative viability (Calu-6; first compound 0.6325 µM): 0.807
- relative viability (Calu-6; first compound 2 µM): 0.656
- relative viability (EMC-BAC-2; first compound 0.02 µM): 1.02
- relative viability (EMC-BAC-2; first compound 0.2 µM): 1
- relative viability (EMC-BAC-2; first compound 0.6325 µM): 1.19
- relative viability (EMC-BAC-2; first compound 2 µM): 1.03
- relative viability (ABC-1; first compound 0.02 µM): 0.275
- relative viability (ABC-1; first compound 0.2 µM): 0.282
- relative viability (ABC-1; first compound 0.6325 µM): 0.312
- relative viability (ABC-1; first compound 2 µM): 0.317
- relative viability (IA-LM; first compound 0.02 µM): 0.87
- relative viability (IA-LM; first compound 0.6325 µM): 1.31
- relative viability (IA-LM; first compound 2 µM): 0.909
- relative viability (NCI-H1299; first compound 0.02 µM): 1.05
- relative viability (NCI-H1299; first compound 0.2 µM): 1.03
- relative viability (NCI-H1299; first compound 0.6325 µM): 1.01
- relative viability (NCI-H1299; first compound 2 µM): 1.09
- relative viability (EBC-1; first compound 0.02 µM): 0.553
- relative viability (EBC-1; first compound 0.2 µM): 0.484
- relative viability (EBC-1; first compound 0.6325 µM): 0.628
- relative viability (EBC-1; first compound 2 µM): 0.531
- relative viability (NCI-H2228; first compound 0.02 µM): 1.05
- relative viability (NCI-H2228; first compound 0.2 µM): 0.684
- relative viability (NCI-H2228; first compound 0.6325 µM): 1.2
- relative viability (NCI-H2228; first compound 2 µM): 0.652
- relative viability (NCI-H2009; first compound 0.02 µM): 1.01
- relative viability (NCI-H2009; first compound 0.2 µM): 0.912
- relative viability (NCI-H2009; first compound 0.6325 µM): 1.03
- relative viability (NCI-H2009; first compound 2 µM): 0.747
- relative viability (NCI-H1703; first compound 0.02 µM): 0.304
- relative viability (NCI-H1703; first compound 0.2 µM): 0.314
- relative viability (NCI-H1703; first compound 0.6325 µM): 0.293
- relative viability (NCI-H1703; first compound 2 µM): 0.22
